This is an account of results in US10793564B2, “Amino acid compounds and methods of use” (Pliant Therapeutics, Inc., priority 2018, dated 2020).

Where only a bound is given, the exact number is not on record here.

The target in the assay is recombinant human integrin αVβ6 (Homo sapiens (Human), UniProt P06756+P18564). In words: Solid phase integrin αVβ6 binding assay. The settings on record: inhibition of recombinant TGFβ1 LAP binding to coated integrin, IC50 presented in four ranges, read-out: αvβ6 Inhibition IC50 (nM) - range. An outline of the steps: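 Plates coated with recombinant human αVβ6 (2 μg/mL) and blocked; compounds competed with TGFβ1 LAP (0.67 μg/mL) in Mn2+ (0.5 mM)/BSA/sucrose TBS for 2 h at 25° C. Bound LAP detected by biotin anti-LAP and peroxidase-streptavidin; IC50 by four-parameter logistic fit.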
Chain of recombinant human integrin αVβ6 (P06756 31-992): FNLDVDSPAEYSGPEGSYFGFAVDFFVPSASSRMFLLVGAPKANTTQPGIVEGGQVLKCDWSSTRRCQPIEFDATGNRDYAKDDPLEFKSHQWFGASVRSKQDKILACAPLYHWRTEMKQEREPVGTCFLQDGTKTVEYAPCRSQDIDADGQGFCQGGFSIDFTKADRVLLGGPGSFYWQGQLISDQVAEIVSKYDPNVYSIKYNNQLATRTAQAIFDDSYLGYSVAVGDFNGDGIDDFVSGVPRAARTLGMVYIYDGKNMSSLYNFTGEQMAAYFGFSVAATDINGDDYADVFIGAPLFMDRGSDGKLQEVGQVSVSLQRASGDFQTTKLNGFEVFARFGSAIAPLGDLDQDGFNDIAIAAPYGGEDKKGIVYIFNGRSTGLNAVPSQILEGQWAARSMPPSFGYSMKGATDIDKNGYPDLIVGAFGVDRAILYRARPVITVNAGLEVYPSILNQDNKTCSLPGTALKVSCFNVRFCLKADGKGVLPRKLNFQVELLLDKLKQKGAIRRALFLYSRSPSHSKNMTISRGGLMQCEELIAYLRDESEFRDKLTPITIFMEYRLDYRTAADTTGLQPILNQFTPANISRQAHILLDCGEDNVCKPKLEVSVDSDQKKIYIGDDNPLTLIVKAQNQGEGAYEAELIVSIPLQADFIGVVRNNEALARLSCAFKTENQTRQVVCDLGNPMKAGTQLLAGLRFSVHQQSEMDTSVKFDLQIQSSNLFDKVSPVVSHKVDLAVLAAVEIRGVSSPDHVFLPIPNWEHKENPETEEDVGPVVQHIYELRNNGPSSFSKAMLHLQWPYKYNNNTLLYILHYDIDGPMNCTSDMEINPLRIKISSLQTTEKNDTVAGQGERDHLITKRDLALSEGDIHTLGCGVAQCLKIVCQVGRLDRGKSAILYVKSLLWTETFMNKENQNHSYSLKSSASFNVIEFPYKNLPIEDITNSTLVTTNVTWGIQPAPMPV
Chain of recombinant human integrin αVβ6 (P18564 22-707): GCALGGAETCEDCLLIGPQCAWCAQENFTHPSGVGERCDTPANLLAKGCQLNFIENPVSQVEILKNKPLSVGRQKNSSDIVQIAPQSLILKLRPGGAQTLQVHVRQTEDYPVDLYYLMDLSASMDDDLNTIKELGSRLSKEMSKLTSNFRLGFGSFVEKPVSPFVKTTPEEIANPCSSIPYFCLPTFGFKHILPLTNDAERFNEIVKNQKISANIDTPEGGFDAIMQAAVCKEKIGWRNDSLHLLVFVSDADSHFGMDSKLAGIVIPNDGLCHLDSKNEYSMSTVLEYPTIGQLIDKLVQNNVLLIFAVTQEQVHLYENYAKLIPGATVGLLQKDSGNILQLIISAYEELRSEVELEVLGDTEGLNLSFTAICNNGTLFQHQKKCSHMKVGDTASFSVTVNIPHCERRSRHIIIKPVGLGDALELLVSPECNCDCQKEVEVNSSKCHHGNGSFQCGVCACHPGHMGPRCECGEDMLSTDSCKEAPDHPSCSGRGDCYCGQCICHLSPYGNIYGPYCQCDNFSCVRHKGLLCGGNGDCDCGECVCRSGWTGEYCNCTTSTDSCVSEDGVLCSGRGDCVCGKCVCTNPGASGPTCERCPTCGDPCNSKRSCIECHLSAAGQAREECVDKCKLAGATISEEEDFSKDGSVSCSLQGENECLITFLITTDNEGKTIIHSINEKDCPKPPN
In the case of `Cc1ccc(OCCN(CCCCc2ccc3c(n2)NCCC3)CC[C@H](Nc2ncnc3ccccc23)C(=O)O)cn1` [Compound 59, (S)-4-((2-((6-methylpyridin-3-yl)oxy)ethyl) (4-(5,6,7,8-tetrahydro-1,8-naphthyridin-2-yl)butyl)amino)-2-(quinazolin-4-ylamino) butanoic Acid], the IC50 – broadly, the concentration needed to halve the response being measured – is below 50 nM.

With `O=C(O)[C@H](CCN(CCCCc1ccc2c(n1)NCCC2)CCOc1cncc(F)c1)Nc1ncnc2cccnc12` [Compound 60, (S)-4-((2-((5-fluoropyridin-3-yl)oxy)ethyl) (4-(5,6,7,8-tetrahydro-1,8-naphthyridin-2-yl)butyl)amino)-2-(pyrido[3,2-d]pyrimidin-4-ylamino) butanoic Acid], the IC50 was below 50 nM.

For the molecule `Cc1nc(N[C@@H](CCN(CCCCc2ccc3c(n2)NCCC3)CCOc2cncc(F)c2)C(=O)O)c2ccc(F)cc2n1` [Compound 61, (S)-2-((7-fluoro-2-methylquinazolin-4-yl)amino)-4-((2-((5-fluoropyridin-3-yl)oxy)ethyl) (4-(5,6,7,8-tetrahydro-1,8-naphthyridin-2-yl)butyl)amino) butanoic Acid], the IC50 was below 50 nM.

Consider `CO[C@H](C)CN(CCCCc1ccc2c(n1)NCCC2)CC[C@H](Nc1ncnc2ccccc12)C(=O)O` [Compound 62, (S)-4-(((R)-2-methoxypropyl) (4-(5,6,7,8-tetrahydro-1,8-naphthyridin-2-yl)butyl)amino)-2-(quinazolin-4-ylamino) butanoic Acid], for which the IC50 is below 50 nM.

`CC(=O)NCCN(CCCCc1ccc2c(n1)NCCC2)CC[C@H](Nc1ncnc2ccccc12)C(=O)O` [Compound 63, (S)-4-((2-acetamidoethyl) (4-(5,6,7,8-tetrahydro-1,8-naphthyridin-2-yl)butyl)amino)-2-(quinazolin-4-ylamino) butanoic Acid]: the IC50 was below 50 nM.

Consider `CN(C)C(=O)CN(CCCCc1ccc2c(n1)NCCC2)CC[C@H](Nc1ncnc2ccccc12)C(=O)O` [Compound 64, (S)-4-((2-(dimethylamino)-2-oxoethyl) (4-(5,6,7,8-tetrahydro-1,8-naphthyridin-2-yl)butyl)amino)-2-(quinazolin-4-ylamino) butanoic Acid], for which the 50% inhibitory concentration (IC50) was below 50 nM.

With `CO[C@H](C)CN(CCCCc1ccc2c(n1)NCCC2)CC[C@H](Nc1nc(C)nc2cc(F)ccc12)C(=O)O` [Compound 65, (S)-2-((7-fluoro-2-methylquinazolin-4-yl)amino)-4-(((R)-2-methoxypropyl) (4-(5,6,7,8-tetrahydro-1,8-naphthyridin-2-yl)butyl)amino) butanoic Acid], the IC50 was below 50 nM.

With `CO[C@H](C)CN(CCCCc1ccc2c(n1)NCCC2)CC[C@H](Nc1nc(C)nc2ccccc12)C(=O)O` [Compound 66, (S)-4-(((R)-2-methoxypropyl) (4-(5,6,7,8-tetrahydro-1,8-naphthyridin-2-yl)butyl)amino)-2-((2-methylquinazolin-4-yl)amino) butanoic Acid], the IC50 is below 50 nM.

Take `COCCN(CCCCc1ccc2c(n1)NCCC2)CC[C@H](Nc1nccnc1C#N)C(=O)O` [Compound 67, (S)-2-((3-cyanopyrazin-2-yl)amino)-4-((2-methoxyethyl) (4-(5,6,7,8-tetrahydro-1,8-naphthyridin-2-yl)butyl)amino) butanoic Acid]: the IC50 was below 50 nM.

For the molecule `CO[C@H](C)CN(CCCCc1ccc2c(n1)NCCC2)CC[C@H](Nc1ncc(C#N)cn1)C(=O)O` [Compound 68, (S)-2-((5-cyanopyrimidin-2-yl)amino)-4-(((R)-2-methoxypropyl) (4-(5,6,7,8-tetrahydro-1,8-naphthyridin-2-yl)butyl)amino) butanoic Acid], the IC50 is below 50 nM.

Turning to `CO[C@H](C)CN(CCCCc1ccc2c(n1)NCCC2)CC[C@H](Nc1ncc(C(F)(F)F)cn1)C(=O)O` [Compound 69, (S)-4-(((R)-2-methoxypropyl) (4-(5,6,7,8-tetrahydro-1,8-naphthyridin-2-yl)butyl)amino)-2-((5-(trifluoromethyl)pyrimidin-2-yl)amino) butanoic Acid], the IC50 is below 50 nM.

As to `CO[C@H](C)CN(CCCCc1ccc2c(n1)NCCC2)CC[C@H](Nc1ncc(Br)cn1)C(=O)O` [Compound 70, (S)-2-((5-bromopyrimidin-2-yl)amino)-4-(((R)-2-methoxypropyl) (4-(5,6,7,8-tetrahydro-1,8-naphthyridin-2-yl)butyl)amino) butanoic Acid], the IC50 is below 50 nM.

For the molecule `CO[C@H](C)CN(CCCCc1ccc2c(n1)NCCC2)CC[C@H](Nc1ncnc2[nH]ncc12)C(=O)O` [Compound 71, (S)-2-((1H-pyrazolo[3,4-d]pyrimidin-4-yl)amino)-4-(((R)-2-methoxypropyl) (4-(5,6,7,8-tetrahydro-1,8-naphthyridin-2-yl)butyl)amino) butanoic Acid], the IC50 is below 50 nM.

Regarding `CO[C@H](C)CN(CCCCc1ccc2c(n1)NCCC2)CC[C@H](Nc1ccnc(C(F)(F)F)n1)C(=O)O` [Compound 72, (S)-4-(((R)-2-methoxypropyl) (4-(5,6,7,8-tetrahydro-1,8-naphthyridin-2-yl)butyl)amino)-2-((2-(trifluoromethyl)pyrimidin-4-yl)amino) butanoic Acid], the IC50 was below 50 nM.

As for `CO[C@H](C)CN(CCCCc1ccc2c(n1)NCCC2)CC[C@H](Nc1ccnc(-c2ccccc2)n1)C(=O)O` [Compound 73, (S)-4-(((R)-2-methoxypropyl) (4-(5,6,7,8-tetrahydro-1,8-naphthyridin-2-yl)butyl)amino)-2-((2-phenylpyrimidin-4-yl)amino) butanoic Acid], the half-inhibitory concentration (IC50) is below 50 nM.

On to `CO[C@H](C)CN(CCCCc1ccc2c(n1)NCCC2)CC[C@H](Nc1ncnc2c1cnn2C)C(=O)O` [Compound 74, (S)-4-(((R)-2-methoxypropyl) (4-(5,6,7,8-tetrahydro-1,8-naphthyridin-2-yl)butyl)amino)-2-((1-methyl-1H-pyrazolo[3,4-d]pyrimidin-4-yl)amino) butanoic Acid], for which the half-inhibitory concentration (IC50) is below 50 nM.

With `O=C(O)[C@H](CCN(CCO)CCCCc1ccc2c(n1)NCCC2)Nc1ncnc2ccccc12` [Compound 75, (S)-4-((2-hydroxyethyl) (4-(5,6,7,8-tetrahydro-1,8-naphthyridin-2-yl)butyl)amino)-2-(quinazolin-4-ylamino) butanoic Acid], the IC50 is below 50 nM.

With `CO[C@H](C)CN(CCCCc1ccc2c(n1)NCCC2)CC[C@H](Nc1nccnc1C#N)C(=O)O` [Compound 76, (S)-2-((3-cyanopyrazin-2-yl)amino)-4-(((R)-2-methoxypropyl) (4-(5,6,7,8-tetrahydro-1,8-naphthyridin-2-yl)butyl)amino) butanoic Acid], the IC50 is below 50 nM.

As for `CO[C@H](C)CN(CCCCc1ccc2c(n1)NCCC2)CC[C@H](Nc1cc(-n2cccn2)ncn1)C(=O)O` [Compound 77, (S)-2-((6-(1H-pyrazol-1-yl)pyrimidin-4-yl)amino)-4-(((R)-2-methoxypropyl) (4-(5,6,7,8-tetrahydro-1,8-naphthyridin-2-yl)butyl)amino) butanoic Acid], the IC50 is below 50 nM.

On to `CO[C@H](C)CN(CCCCc1ccc2c(n1)NCCC2)CC[C@H](Nc1ncc(F)cn1)C(=O)O` [Compound 78, (S)-2-((5-fluoropyrimidin-2-yl)amino)-4-(((R)-2-methoxypropyl) (4-(5,6,7,8-tetrahydro-1,8-naphthyridin-2-yl)butyl)amino) butanoic Acid], for which the IC50 was below 50 nM.

`CO[C@H](C)CN(CCCCc1ccc2c(n1)NCCC2)CC[C@H](Nc1ncnc2cn[nH]c12)C(=O)O` [Compound 79, (S)-2-((1H-pyrazolo[4,3-d]pyrimidin-7-yl)amino)-4-(((R)-2-methoxypropyl) (4-(5,6,7,8-tetrahydro-1,8-naphthyridin-2-yl)butyl)amino) butanoic Acid]: the IC50 was below 50 nM.

As to `CO[C@H](C)CN(CCCCc1ccc2c(n1)NCCC2)CC[C@H](Nc1cc(-c2ccccc2)ncn1)C(=O)O` [Compound 80, (S)-4-(((R)-2-methoxypropyl) (4-(5,6,7,8-tetrahydro-1,8-naphthyridin-2-yl)butyl)amino)-2-((6-phenylpyrimidin-4-yl)amino) butanoic Acid], the IC50 is below 50 nM.

Consider `Cn1ncc2c(N[C@@H](CCN(CCCCc3ccc4c(n3)NCCC4)CCOc3ccccc3)C(=O)O)ncnc21` [Compound 82, (S)-2-((1-methyl-1H-pyrazolo[3,4-d]pyrimidin-4-yl)amino)-4-((2-phenoxyethyl) (4-(5,6,7,8-tetrahydro-1,8-naphthyridin-2-yl)butyl)amino) butanoic Acid], for which the IC50 is below 50 nM.

As for `O=C(O)[C@H](CCN(CCCCc1ccc2c(n1)NCCC2)CCOc1ccccc1)Nc1ncc(Br)cn1` [Compound 83, (S)-2-((5-bromopyrimidin-2-yl)amino)-4-((2-phenoxyethyl) (4-(5,6,7,8-tetrahydro-1,8-naphthyridin-2-yl)butyl)amino) butanoic Acid], the IC50 was below 50 nM.

As for `COC[C@@H](F)CN(CCCCc1ccc2c(n1)NCCC2)CC[C@H](Nc1ncc(C(F)(F)F)cn1)C(=O)O` [Compound 85, (S)-4-(((S)-2-fluoro-3-methoxypropyl) (4-(5,6,7,8-tetrahydro-1,8-naphthyridin-2-yl)butyl)amino)-2-((5-(trifluoromethyl)pyrimidin-2-yl)amino) butanoic Acid], the IC50 was in the range of 250 to 1000 nM.

Take `COC[C@@H](F)CN(CCCCc1ccc2c(n1)NCCC2)CC[C@H](Nc1ncc(Br)cn1)C(=O)O` [Compound 86, (S)-2-((5-bromopyrimidin-2-yl)amino)-4-(((S)-2-fluoro-3-methoxypropyl) (4-(5,6,7,8-tetrahydro-1,8-naphthyridin-2-yl)butyl)amino) butanoic Acid]: the IC50 was 50 to 250 nM.

Take `COC[C@@H](F)CN(CCCCc1ccc2c(n1)NCCC2)CC[C@H](Nc1ccnc(C(F)(F)F)n1)C(=O)O` [Compound 87, (S)-4-(((S)-2-fluoro-3-methoxypropyl) (4-(5,6,7,8-tetrahydro-1,8-naphthyridin-2-yl)butyl)amino)-2-((2-(trifluoromethyl)pyrimidin-4-yl)amino) butanoic Acid]: the IC50 lay in the range of 250 to 1000 nM.
